Experimental data from paper PMC9501280, “Anti-Inflammatory Activity of Soluble Epoxide Hydrolase Inhibitors Based on Selenoureas Bearing an Adamantane Moiety” (International Journal of Molecular Sciences, 2022).

Experiments:
B. subtilis 168 pNK-AlkA = experiment: Lux-biosensor, DNA alkylation (PalkA); assay type: cell-based, Bacillus subtilis; conditions: compounds 1 μM to 1 mM; Standard = methyl methanesulfonate 1 mM
Procedure: (§1) The study was carried out with use of the following whole-cell bacterial biosensors: Escherichia coli MG1655 pOxyR-lux, E. coli MG1655 pDps, E. coli MG1655 pSoxS-lux, E. coli MG1655 pColD-lux, E. coli MG1655 pAlkA-lux, E. coli MG1655 pXen7, Bacillus subtilis 168 pNK-AlkA, B. subtilis 168 pNK-MrgA and B. subtilis 168 pNK-DinC. These biosensors by the quantitation of bacterial stress promoters’ activity, make it possible to determine oxidative stress caused by hydrogen peroxide and the superoxide anion radical, SOS response, DNA alkylation, or general toxicity in Gram-positive and Gram-negative B. subtilis and E. coli cells. We used concentrations from 1 μM to 1 mM of the studied compounds added to the suspension of biosensor cells. […]
(§2) The bioluminescence of cells was measured using a Synergy HT luminometer (Biotek, Winooski, VT, USA) at room temperature. Lux biosensors based on E. coli were grown to an early logarithmic phase (OD ≈ 0.1) to achieve a background luminescence approximately 100–1000 RLU at the beginning of the measurements. Lux biosensors based on B. subtilis were grown to a logarithmic phase with an optical density OD ≈ 0.6 (and background luminescence of about 10–500 RLU). […] The kinetics of change in luminescence was measured at room temperature. […]

B. subtilis 168 pNK-MrgA = experiment: Lux-biosensor, hydrogen peroxide (PmrgA); assay type: cell-based, Bacillus subtilis; conditions: compounds 1 μM to 1 mM; Standard = hydrogen peroxide 100 μM
Procedure: as §1, §2

[1] = system: E. coli MG1655 and B. subtilis 168 biosensor cells; experiment: Whole-cell bacterial lux-biosensors, whole panel (statements in words); assay type: cell-based, Escherichia coli, Bacillus subtilis; conditions: concentrations from 1 μM to 1 mM
Procedure: (§3) The study was carried out with use of the following whole-cell bacterial biosensors: Escherichia coli MG1655 pOxyR-lux, E. coli MG1655 pDps, E. coli MG1655 pSoxS-lux, E. coli MG1655 pColD-lux, E. coli MG1655 pAlkA-lux, E. coli MG1655 pXen7, Bacillus subtilis 168 pNK-AlkA, B. subtilis 168 pNK-MrgA and B. subtilis 168 pNK-DinC. These biosensors by the quantitation of bacterial stress promoters’ activity, make it possible to determine oxidative stress caused by hydrogen peroxide and the superoxide anion radical, SOS response, DNA alkylation, or general toxicity in Gram-positive and Gram-negative B. subtilis and E. coli cells. We used concentrations from 1 μM to 1 mM of the studied compounds added to the suspension of biosensor cells.
In this work, biosensor strains based on E. coli MG1655 cells and B. subtilis 168 cells were used.
The bioluminescence of cells was measured using a Synergy HT luminometer (Biotek, Winooski, VT, USA) at room temperature. Lux biosensors based on E. coli were grown to an early logarithmic phase (OD ≈ 0.1) to achieve a background luminescence approximately 100–1000 RLU at the beginning of the measurements. Lux biosensors based on B. subtilis were grown to a logarithmic phase with an optical density OD ≈ 0.6 (and background luminescence of about 10–500 RLU). […] The kinetics of change in luminescence was measured at room temperature.

B. subtilis 168 pNK-DinC = experiment: Lux-biosensor, SOS response (PdinC); assay type: cell-based, Bacillus subtilis; conditions: compounds 1 μM to 1 mM; Standard = Mitomycin C 30 μM
Procedure: as §1, §2

E. coli MG1655 pColD-lux = assay type: cell-based, Escherichia coli; conditions: compounds 1 μM to 1 mM; Standard = Mitomycin C 30 μM
Procedure: as §3
(§4) pColD-lux―PcolD is induced by the SOS response; pDps―Pdps is activated in the presence of DNA-oxidizing agents; pSoxS-lux―PSoxS is induced in the presence of superoxide anion radicals; pOxyR-lux―PoxyR is induced in response to the appearance of hydrogen peroxide or organic peroxides; pAlkA-lux―PalkA is induced in response to DNA alkylation. pXen7 contains P. luminescens ZM1 lux genes controlled by its own promoter, which was used as a constitutive.
(§5) The bioluminescence of cells was measured using a Synergy HT luminometer (Biotek, Winooski, VT, USA) at room temperature. Lux biosensors based on E. coli were grown to an early logarithmic phase (OD ≈ 0.1) to achieve a background luminescence approximately 100–1000 RLU at the beginning of the measurements. Lux biosensors based on B. subtilis were grown to a logarithmic phase with an optical density OD ≈ 0.6 (and background luminescence of about 10–500 RLU). Biosensor cell cultures were divided into portions of 200 μL in a 96-well plate. Control toxicants and studied compounds were added to the cell suspension at 2 µL per well. Mitomycin C (at final concentration of 30 μM) for biosensors induced by the SOS response (PcolD and PdinC); methyl methanesulfonate (1 mM) for biosensors induced by DNA alkylation (PalkA); hydrogen peroxide (100 μM) for biosensors induced by presence of peroxides (PoxyR, Pdps and PmrgA) and methyl viologen (100 μM) for PsoxS activation by the presence of superoxide anion radicals. The kinetics of change in luminescence was measured at room temperature.
(§6) To unify the obtained results and eliminate the differences between the experiments due to different initial luminescence values, the luminescence value in each sample was normalized to the initial value according to Equation (1): (1) Lnorm(t, x)=L(t, x)/L(0, x) where Lnorm(t,x)—luminescence normalized to the initial value for the sample x, L(t,x) is the luminescence of sample x at time t and L(0,x) is the initial luminescence of sample x (immediately after addition of the studied compound or control toxicant). This normalization considers the optical density of the studied compound and the luminescence shielding caused by it, which appears immediately after the addition and facilitates the analysis of a slower effect associated with the general toxicity and activation of stress-inducible promoters for which the typical time of activation is in a range from several minutes to 3 h.
(§7) To determine the luminescence induction coefficient of biosensor cells, observed due to changes in the level of reporter genes transcription, the following equation was used:(2) Kind(t, x)=Lnorm(t, x)/Lnorm(t, contr) where Kind(t) is the calculated luminescence induction coefficient of biosensor cells in sample x at time point t, and Lnorm(t,contr) is the normalized luminescence in the control sample of the same biosensor cells without the addition of the studied compounds.

E. coli MG1655 pOxyR-lux = assay type: cell-based, Escherichia coli; conditions: compounds 1 μM to 1 mM; Standard = hydrogen peroxide 100 μM
Procedure: as §3, §4, §5, §6, §7

E. coli MG1655 pDps = assay type: cell-based, Escherichia coli; conditions: compounds 1 μM to 1 mM; Standard = hydrogen peroxide 100 μM
Procedure: as §3, §4, §5, §6, §7

E. coli MG1655 pAlkA-lux = assay type: cell-based, Escherichia coli; conditions: compounds 1 μM to 1 mM; Standard = methyl methanesulfonate 1 mM
Procedure: as §3, §4, §5, §6, §7

E. coli MG1655 pSoxS-lux = experiment: Lux-biosensor, superoxide anion radicals (PsoxS); assay type: cell-based, Escherichia coli; conditions: compounds 1 μM to 1 mM; Standard = methyl viologen 100 μM
Procedure: as §1, §2

SMILES | max(Kind), B. subtilis 168 pNK-AlkA (B. subtilis 168 pNK-AlkA) | max(Kind), B. subtilis 168 pNK-MrgA (B. subtilis 168 pNK-MrgA) | activation of stress promoters (in words) [1] | max(Kind), B. subtilis 168 pNK-DinC (B. subtilis 168 pNK-DinC) | max(Kind), E. coli MG1655 pColD-lux (E. coli MG1655 pColD-lux) | max(Kind), E. coli MG1655 pOxyR-lux (E. coli MG1655 pOxyR-lux) | max(Kind), E. coli MG1655 pDps (E. coli MG1655 pDps) | max(Kind), E. coli MG1655 pAlkA-lux (E. coli MG1655 pAlkA-lux) | max(Kind), E. coli MG1655 pSoxS-lux (E. coli MG1655 pSoxS-lux)
[Se]=C(Nc1ccccc1)NC12CC3CC(CC(C3)C1)C2 [4a, 1-(Adamantan-1-yl)-3-phenylselenourea] | 0.8 ± 0.4 | 1.2 ± 0.5 | causes only the activation of stress promoter PoxyR | 1.1 ± 0.4 | 1.5 ± 0.6 | 2.62 ± 0.7 | 1.15 ± 0.25 | 1.15 ± 0.33 | 1.16 ± 0.19
[Se]=C(Nc1ccccc1)NC1C2CC3CC(C2)CC1C3 (stereo not drawn) [4g, 1-(Adamantan-2-yl)-3-phenylselenourea] | 0.7 ± 0.4 | 1.2 ± 0.3 | does not cause an increase in the luminescence | 1.1 ± 0.3 | 1.26 ± 0.31 | 1.12 ± 0.16 | 1.2 ± 0.4 | 1.05 ± 0.30 | 1.0 ± 0.1
